Test results: patent US11471502B2, “Neuroprotective peptide” (UNIVERSITY COLLEGE CARDIFF C[…], priority 2017, dated 2022)
Entries after “also recorded” stand apart in the source; their conditions may differ.

Tests used:
ERK1/MAPK3 = experiment: Single in vivo administration in ERK1 KO versus ERK1 WT mice; parameters: species or system mouse
Protocol: a) RB5 peptide selectively promoted activation of ERK2. Acute striatal slices either pre-treated with Scramble (SCR) or RB5 peptide (50 μM) and then stimulated 10 minutes with glutamate (GLU) (100 μM) or vehicle were analysed in Western blot (left panel) and probed with anti phospho ERK antibodies (p44^ERK1 and p42^ERK2) and anti ERK1/2 antibody. GAPDH was used as loading control. […] No changes were detected in the total ERK1 and ERK2 levels. GAPDH was used as loading control. […] Mice injected with a single dose of CPP-SCR or CPP-RB5 peptides (20 mg/kg, i.p.) were rapidly perfused 1 h later and brains were dissected and further analysed for IHC and immunofluorescence. Representative photomicrographs of pERK1/2, pMSK, pAch3, pELK1 and c-Fos expression in the striatum. […] Two-way ANOVA Bonferroni post hoc comparison: one black star, p<0.05, two black stars, p<0.01, one white star, p<0.001. p) Dose response curve of RB5 peptide for ERK activation. 200 μm thick striatal slices were freshly prepared from 2-month old mice and transferred into a perfusion chamber for 1 h at 32° C. Slices were pre-treated with different doses of RB5 or scrambled control. After 1 h, slices for each dose was fixed in PFA 4% for 15 min. 18 μm cryo-sections were processed for immunohistochemistry with anti-phospho p44/p42 MAP kinase. Neuronal quantification was performed with ImageJ software by counting the number of phospho-ERK positive cells in each slice. The level of activation is expressed on the Y-axis as arbitrary units (AU). Doses are reported in a logarithmic scale (Log 10) on the X-axis. The EC50 was calculated using GraphPad Prism software.
ERK1 male KO and littermate controls, were generated as described previously and were used for ex vivo analysis.
Mice pre-treated with a single dose of CPP-RB5 or CPP-SCR (20 mg/kg) were perfused 1 h later and brain slices were processed for nuclear and cytoplasmic markers.

Tg2576 mice = experiment: Tg2576 mouse model of Alzheimer's Disease, neuroprotection; type: in vivo; conditions: 20 mg/kg i.p., 7 days
Protocol: Two-way ANOVA Bonferroni post-hoc comparison **p<0.01***p<0.001.
The genetic model of Alzheimer's Disease Tg2576 and their WT controls have been treated for 7 days with RB5/scramble peptide (20 mg/kg, i.p).

## CSCC[C@H](NC(=O)[C@H](CCC(=O)O)NC(=O)[C@@H](NC(=O)[C@H](CCC(=O)O)NC(=O)CNC(=O)[C@@H]1CCCN1C(=O)[C@@H](NC(=O)CNC(=O)[C@@H]1CCCN1C(=O)CNC(=O)[C@@H](NC(=O)CNC(=O)[C@H](CCC(=O)O)NC(=O)[C@@H](NC(=O)[C@H](CCCNC(=N)N)NC(=O)[C@H](CCCNC(=N)N)NC(=O)[C@@H]1CCCN1C(=O)[C@H](CCC(=O)O)NC(=O)CNC(=O)CNC(=O)CNC(=O)CNC(=O)CNC(=O)[C@H](CCC(N)=O)NC(=O)[C@@H]1CCCN1C(=O)[C@@H]1CCCN1C(=O)[C@H](CCCNC(=N)N)NC(=O)[C@H](CCCNC(=N)N)NC(=O)[C@H](CCCNC(=N)N)NC(=O)[C@H](CCC(N)=O)NC(=O)[C@H](CCCNC(=N)N)NC(=O)[C@H](CCCNC(=N)N)NC(=O)[C@H](CCCCN)NC(=O)[C@H](CCCCN)NC(=O)[C@H](CCCNC(=N)N)NC(=O)CNC(C)=O)[C@@H](C)O)C(C)C)C(C)C)C(C)C)C(=O)N[C@H](C(=O)N[C@@H](CCCCN)C(=O)NCC(=O)N[C@@H](CCC(N)=O)C(=O)N1CCC[C@H]1C(=O)N[C@@H](Cc1ccccc1)C(=O)N[C@@H](CC(=O)O)C(=O)N[C@@H](C(=O)O)C(C)C)C(C)C [RB5]
ERK1/MAPK3; ERK1 KO mice, single administration
  pERK, pAcH3 (and pS6): did not alter; also recorded: did not reach the statistical significance
ERK1/MAPK3; ERK1 WT mice, single administration
  pERK and pAcH3: significant activation
ERK1/MAPK3; ERK1 WT vs ERK1 KO mice
  phosphorylation of S6: comparable in both genotypes
Tg2576 mice
  ERK activation (pERK) in hippocampal CA1 and Dentate Gyrus: increased pERK; also recorded: significant enhancement of ERK activation
  pre-apoptotic state (Cleaved Caspase-3 staining): reduced the levels of cleaved caspase-3 staining; also recorded: significant reduction of the pre-apoptotic state
